# Reference: ChEMBL document CHEMBL4354803, “Synthesis and biological activity of structurally diverse phthalazine derivatives: A systematic review” (Bioorg Med Chem, 2019)
# pEC50, pIC50: −log10 of the molar value.
# Assays:
# Mus musculus [1] = organism: Mus musculus; assay: animal or person; conditions: ICR, ip
# Description: Anticonvulsant activity in ip dosed ICR mouse assessed as protection against 50 mA current-induced seizure pretreated for 30 mins followed by seizure induction measured for 60 mins by maximal electroshock seizure test
# HepG2 = assay: Cytotoxicity against human HepG2 cells incubated for 48 hrs by sulforhodamine B staining based ELISA; assay type: functional, cell-based; conditions: HepG2, 48 h
# Ehrlich = assay: Antitumor activity against mouse EAC cells implanted in Swiss albino mouse assessed as reduction in tumor growth at 5 mg/kg, ip dosed daily starting 6 days after inoculation; assay type: functional, organism-based; conditions: 144 h
# [2] = biological target: T1, NAD-dependent protein deacetylase sirtuin-1 (Homo sapiens) (UniProt Q96EB6); assay: Modulation of SIRT1 (unknown origin) expressed in Escherichia coli BL21(DE3) cells using Ac-EE-K(biotin)-GQSTSSHSK(Ac)NleSTEG-K(5TMR)-EE-NH2 as substrate after 25 mins by mass spectrometry
# T1 sequence (whole entry): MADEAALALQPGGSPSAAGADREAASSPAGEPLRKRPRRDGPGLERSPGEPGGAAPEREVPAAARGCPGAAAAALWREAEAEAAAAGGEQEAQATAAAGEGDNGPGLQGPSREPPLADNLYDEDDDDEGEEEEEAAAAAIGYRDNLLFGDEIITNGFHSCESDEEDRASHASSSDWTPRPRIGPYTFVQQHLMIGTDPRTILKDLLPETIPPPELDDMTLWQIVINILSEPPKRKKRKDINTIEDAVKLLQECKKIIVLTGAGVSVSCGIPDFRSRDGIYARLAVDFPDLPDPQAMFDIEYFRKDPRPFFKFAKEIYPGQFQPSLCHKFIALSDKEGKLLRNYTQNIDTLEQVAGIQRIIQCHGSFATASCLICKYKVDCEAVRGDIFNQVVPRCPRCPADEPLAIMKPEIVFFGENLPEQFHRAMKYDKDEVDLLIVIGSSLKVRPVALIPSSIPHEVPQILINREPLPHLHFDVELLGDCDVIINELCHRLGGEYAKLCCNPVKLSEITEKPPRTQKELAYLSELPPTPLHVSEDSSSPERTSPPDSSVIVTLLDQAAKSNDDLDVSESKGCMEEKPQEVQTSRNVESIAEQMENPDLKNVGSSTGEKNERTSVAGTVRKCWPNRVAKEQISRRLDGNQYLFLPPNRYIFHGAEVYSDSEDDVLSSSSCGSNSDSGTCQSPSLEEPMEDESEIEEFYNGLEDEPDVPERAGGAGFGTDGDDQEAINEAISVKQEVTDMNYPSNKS
# CAPAN-1 = assay: Growth inhibition of human Capan1 cells after 7 days by CCK-8 method; assay type: functional, cell-based; conditions: CAPAN-1, 168 h
# MDA-MB-468 = assay: Growth inhibition of human MDA-MB-468 cells after 7 days by CCK-8 method; assay type: functional, cell-based; conditions: MDA-MB-468, 168 h
# [3] = Inhibition of human HeLa cell derived PARP preincubated for 10 mins followed by NAD and double stranded DNA-oligos addition and measured after 45 mins by scintillation counting; assay type: cell-based
# [4] = biological target: T2, Poly [ADP-ribose] polymerase 1 (Homo sapiens, UniProt P09874); assay: Inhibition of human PARP1 expressed in Escherichia coli incubated for 15 to 40 mins by ELISA
# Mus musculus [5] = assay: Antinociceptive activity in Balb/c mouse at 20 mg/kg, ip after 120 mins by tail flick test relative to control; assay type: functional
# Mus musculus [6] = assay: Antinociceptive activity in Balb/c mouse at 20 mg/kg, ip after 180 mins by tail flick test relative to control; assay type: functional
# Mus musculus [7] = assay: Antidiabetic activity in C57BL/KsJ mouse assessed as maximum reduction in blood glucose level at 200 mg/kg, po administered for 9 days by spectrometric method relative to control; assay type: functional; parameters: scale not given: the % may be the effect or the level left
# MCF7 = assay: Cytotoxicity against human MCF7 cells; assay type: functional; conditions: read-out: LC50 (the source's name)
# [8] = Induction of mouse primary oligodendrocytes incubated for 16 to 24 hrs by WSTl reagent based assay; assay type: functional
# HUVEC = assay: Induction of HUVEC proliferation incubated for 20 hrs followed by 3H thymidine incorporation and measured after 4 hrs by beta counting method; assay type: functional, cell-based; conditions: Homo sapiens
# [9] = biological target: T2, Poly [ADP-ribose] polymerase 1; assay: Inhibition of human PARP1 expressed in Escherichia coli using histone as substrate by ELISA
# [10] = biological target: Aldo-keto reductase family 1 member B1 (Homo sapiens, UniProt P15121); assay: Inhibition of human Aldose reductase
# [11] = biological target: Cystic fibrosis transmembrane conductance regulator (Homo sapiens, UniProt P13569, F508DEL/H148Q/I152L); assay: Inhibition of human CFTR F508 deletion mutant expressed in rat FRT cells coexpressing YFP-H148Q/I152L 25,22 incubated for 60 to 120 mins in presence of forskolin by fluorescent method; assay type: cell-based
# Mus musculus [12] = assay: Anticonvulsant activity in ip dosed mouse assessed as protection against PTZ-induced seizure; assay type: functional
# T2 sequence (P09874 whole entry): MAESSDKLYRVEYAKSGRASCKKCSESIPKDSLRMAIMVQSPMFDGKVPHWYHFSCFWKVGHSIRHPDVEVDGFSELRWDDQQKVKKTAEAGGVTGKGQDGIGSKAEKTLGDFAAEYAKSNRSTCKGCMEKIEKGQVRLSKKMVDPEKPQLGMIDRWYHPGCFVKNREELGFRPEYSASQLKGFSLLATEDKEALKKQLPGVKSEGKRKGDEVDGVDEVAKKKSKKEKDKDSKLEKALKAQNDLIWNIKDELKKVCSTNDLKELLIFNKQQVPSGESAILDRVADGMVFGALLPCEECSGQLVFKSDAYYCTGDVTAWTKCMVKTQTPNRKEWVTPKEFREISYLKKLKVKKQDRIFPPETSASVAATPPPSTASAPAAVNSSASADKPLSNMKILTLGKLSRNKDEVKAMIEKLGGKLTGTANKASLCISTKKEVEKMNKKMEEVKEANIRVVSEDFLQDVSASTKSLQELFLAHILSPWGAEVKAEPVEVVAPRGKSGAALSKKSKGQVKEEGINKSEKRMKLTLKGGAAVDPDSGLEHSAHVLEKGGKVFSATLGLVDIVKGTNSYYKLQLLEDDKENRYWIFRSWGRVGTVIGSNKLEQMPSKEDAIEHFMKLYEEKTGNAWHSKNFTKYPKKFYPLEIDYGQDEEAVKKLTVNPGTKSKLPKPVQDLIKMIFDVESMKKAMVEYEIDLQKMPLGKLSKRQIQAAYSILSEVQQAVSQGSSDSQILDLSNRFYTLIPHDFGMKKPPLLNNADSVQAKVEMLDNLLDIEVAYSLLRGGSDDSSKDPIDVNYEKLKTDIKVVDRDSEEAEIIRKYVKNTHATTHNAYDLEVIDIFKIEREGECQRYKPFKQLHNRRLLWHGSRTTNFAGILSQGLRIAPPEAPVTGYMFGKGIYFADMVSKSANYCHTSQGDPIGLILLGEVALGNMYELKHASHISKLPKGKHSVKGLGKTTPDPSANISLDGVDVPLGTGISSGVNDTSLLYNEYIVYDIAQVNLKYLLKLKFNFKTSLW
# Cystic fibrosis transmembrane conductance regulator, sequence (P13569 whole entry, looked up, stated change not applied): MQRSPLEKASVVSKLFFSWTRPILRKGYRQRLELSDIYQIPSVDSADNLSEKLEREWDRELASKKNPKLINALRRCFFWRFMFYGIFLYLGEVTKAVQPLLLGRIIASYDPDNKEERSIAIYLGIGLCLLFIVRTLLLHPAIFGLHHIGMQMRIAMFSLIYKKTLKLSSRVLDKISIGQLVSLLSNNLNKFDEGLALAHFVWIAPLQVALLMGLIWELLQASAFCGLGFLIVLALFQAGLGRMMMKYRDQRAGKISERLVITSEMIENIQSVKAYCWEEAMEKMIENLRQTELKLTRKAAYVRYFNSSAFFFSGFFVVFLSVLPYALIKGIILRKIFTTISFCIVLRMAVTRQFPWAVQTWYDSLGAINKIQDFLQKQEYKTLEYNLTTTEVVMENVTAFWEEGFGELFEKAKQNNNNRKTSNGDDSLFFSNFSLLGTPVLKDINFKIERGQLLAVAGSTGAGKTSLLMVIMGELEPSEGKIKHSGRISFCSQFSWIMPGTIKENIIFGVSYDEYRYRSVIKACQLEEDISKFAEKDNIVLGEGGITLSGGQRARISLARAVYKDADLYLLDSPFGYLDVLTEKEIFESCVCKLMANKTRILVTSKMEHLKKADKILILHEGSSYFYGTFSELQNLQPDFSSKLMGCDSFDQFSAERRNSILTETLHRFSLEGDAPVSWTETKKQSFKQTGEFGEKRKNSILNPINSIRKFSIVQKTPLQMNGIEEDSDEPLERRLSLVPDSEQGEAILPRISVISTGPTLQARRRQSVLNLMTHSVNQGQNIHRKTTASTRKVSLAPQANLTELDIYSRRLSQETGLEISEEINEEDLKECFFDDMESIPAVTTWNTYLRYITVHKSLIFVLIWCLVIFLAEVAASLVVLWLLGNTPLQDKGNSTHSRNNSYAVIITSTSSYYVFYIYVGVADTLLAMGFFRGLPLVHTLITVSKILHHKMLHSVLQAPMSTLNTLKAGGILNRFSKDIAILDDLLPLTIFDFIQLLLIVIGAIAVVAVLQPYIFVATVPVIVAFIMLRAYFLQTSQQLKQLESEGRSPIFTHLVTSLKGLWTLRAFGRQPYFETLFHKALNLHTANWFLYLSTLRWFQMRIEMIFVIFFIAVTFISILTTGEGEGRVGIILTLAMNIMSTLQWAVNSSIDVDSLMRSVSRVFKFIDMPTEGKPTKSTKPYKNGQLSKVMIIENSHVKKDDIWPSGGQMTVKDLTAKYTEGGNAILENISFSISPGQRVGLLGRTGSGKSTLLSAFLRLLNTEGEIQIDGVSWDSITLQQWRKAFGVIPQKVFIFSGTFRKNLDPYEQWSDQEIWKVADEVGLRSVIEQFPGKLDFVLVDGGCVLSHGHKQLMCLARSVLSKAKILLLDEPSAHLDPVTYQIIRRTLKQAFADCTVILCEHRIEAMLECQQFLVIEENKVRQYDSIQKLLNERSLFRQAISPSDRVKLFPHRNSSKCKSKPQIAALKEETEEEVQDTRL
smiles,measurement,setting,value
CCCC(CCC)C(=O)O [VALPROIC ACID],ED50,Mus musculus [1],1710 µmol/kg
O=C(Cn1nc(Cc2ccccc2)c2ccccc2c1=O)NNC(=S)Nc1ccccc1,pIC50,HepG2,8.00
same,pIC50,Ehrlich,7.70
O=C(Nc1cccc2cnn(-c3cccc(C(F)(F)F)c3)c(=O)c12)c1cnccn1,EC1.5,[2],< 5 µM
O=C(Nc1cccc2cnn(-c3cccc(OC(F)(F)F)c3)c(=O)c12)c1cccc(CN2CCOCC2)n1,EC1.5,[2],< 5 µM
O=C(c1cc(Cc2n[nH]c(=O)c3ccccc23)ccc1F)N1CCn2c(nnc2C(F)F)C1,pIC50,CAPAN-1,11.52
same,pIC50,MDA-MB-468,11.52
CC1NC(=O)N(c2cccc(Cc3n[nH]c(=O)c4ccccc34)c2)C1=O (centres undefined),pIC50,[3],8.30
O=C(c1cc(Cc2n[nH]c(=O)c3ccccc23)cc2c1OCC2)N1CCn2c(nnc2C(F)(F)F)C1,pIC50,[4],8.77
CN(C)CCn1nc(-c2ccncc2)c2ccccc2c1=O,MPE,Mus musculus [5],14.84%
same,MPE,Mus musculus [6],18.26%
Cc1nn(CCOc2ccc(CC3SC(=O)NC3=O)cc2)c(=O)c2ccccc12 (centres undefined),Activity,Mus musculus [7],<=61%
COC1CCN(C(=O)c2cc(Cc3n[nH]c(=O)c4ccccc34)ccc2F)CC1 [AZD2461],pIC50,[3],8.30
O=C(c1cc(Cc2n[nH]c(=O)c3ccccc23)ccc1F)N1CCN(c2ccccn2)CC1,pIC50,[3],8.52
CC(S)C[C@H](NC(=O)Cn1ncc2ccccc2c1=O)C(N)=O (some centres undefined),CC50,MCF7,20300 nM
CN(C)CCn1nc(-c2ccccc2)c2ccccc2c1=O,MPE,Mus musculus [5],39.61%
O=C(Nc1cccc2cnn(-c3cccc(C(F)(F)F)c3)c(=O)c12)c1cscn1,EC1.5,[2],< 5 µM
O=c1[nH]nc(-c2ccc(N3CCCCCC3)c([N+](=O)[O-])c2)c2ccccc12,pEC50,[8],6.70
same,pEC50,HUVEC,5.60
CC1C(=O)N(c2cccc(Cc3n[nH]c(=O)c4ccccc34)c2)C(=O)N1CCN1CCCCC1 (centres undefined),pIC50,[3],8.55
O=C(c1cc(Cc2n[nH]c(=O)c3ccccc23)ccc1F)N1CCNCC1,pIC50,[3],> 7.70
CCN1CCCC2CN(C(=O)c3cc(Cc4n[nH]c(=O)c5ccccc45)ccc3F)CC21 (centres undefined),pIC50,[9],8.70
Cc1c(CC(=O)O)nn(Cc2nc3cc(C(F)(F)F)ccc3s2)c(=O)c1C,pIC50,[10],7.80 to 8.00
O=C(Nc1cccc2cnn(-c3cccc(C(F)(F)F)c3)c(=O)c12)c1cccc(CN2CCOCC2)n1,EC1.5,[2],< 5 µM
O=C(O)Cc1nn(Cc2nc3cc(C(F)(F)F)ccc3s2)c(=O)c2ncccc12,pIC50,[10],7.28 to 8.68
O=C(Nc1cccc2cnn(-c3cccc(C(F)(F)F)c3)c(=O)c12)c1cccc(OCC(O)CO)n1 (centres undefined),EC1.5,[2],< 5 µM
Cc1nc2ccc(N(C)C(=O)Cn3nc(-c4cccc(Cl)c4)c4ccccc4c3=O)cc2o1,pEC50,[11],> 5.00
CN1CC(=O)N(c2cccc(Cc3n[nH]c(=O)c4ccccc34)c2)C1=O,ED50,Mus musculus [12],0.00166 µmol/kg
same,pIC50,[3],> 8.00
